Measured values reported in patent publication US20260344673A1, “A SOLID FORM FOR PREPARATION OF AN AQUEOUS DISPERSION, AQUEOUS DISPERSION, STABLE CONCENTRATE, COMBINED AQUEOUS DISPERSION, AND USES THEREOF” (priority 2022, published 2026).

What was measured:
[1] = system: Colletotrichum gloeosporioides; assay: Kirby-Bauer disk diffusion test, Colletotrichum gloeosporioides; conditions: for EFFICACY W (Abbot): control W=0, no growth W=100
Method: (§1) The microbiological tests were carried out by applying Kirby-Bauer Disk Diffusion Susceptibility Test Protocol for antimicrobial activity. It is based on the formation of a concentration gradient in the growth medium during the diffusion of the active substance from the antibiogram disc (Kirby-Bauer method).
(§2) The performance of the embodiments of the present inventions and their mixtures enriched with millbase (MFA) was analysed against the appropriate reference substance, i.e., a commercial product containing the analogue active substance with the same concentration. The prepared solutions were applied on the paper antibiograms. Then the soaked antibiograms were placed on the Petri Dishes (dish diameter 90 mm) with the growth medium for fungal pathogens V8. Composition of V8: agar, calcium carbonate and multi-vegetable juice. 3 fragments of mycelium of the tested pathogen (5×5 mm) were transplanted onto the prepared medium. As a result, the zones where the fungal growth was inhibited have been measured and compared respectively with the control sample and the analogue active substance sample.
(§3) Assessment was carried out by determining the infested area of the Petri dish in %. These percentages have been converted into efficacy (W) according to Abbot's formula as follows: W=(1−α/β)×100 • where: • α—corresponds to the mycelium/bacterial growth of each tested sample [%], • β—corresponds to the mycelium/bacterial growth in control sample [%].
(§4) In order to estimate if the combined action effect with the commercial fungicide, the W parameter of the mixture was compared with W parameter for particular commercial fungicide solo. Where W=0 the efficacy of the control sample (whole Petri dish covered with mycelium), and W=100 is when no mycelium growth observed.

[2] = system: Venturia inaegualis; assay: Kirby-Bauer disk diffusion test, Venturia inaequalis
Method: as §1, §2, §3, §4

[3] = system: Monilinia fructigena; assay: Kirby-Bauer disk diffusion test, Monilinia fructigena; conditions: for % mycelium growth relative to the control / mycelium growth: V8 medium; for mycelium growth: control 5.4 cm; for EFFICACY W (Abbot): control W=0, no growth W=100
Method: as §2, §3, §4

[4] = system: Botrytis cinerea; assay: Kirby-Bauer disk diffusion test, Botrytis cinerea; conditions: for % mycelium growth relative to the control / mycelium growth: V8 medium; for mycelium growth: control 8.6 cm; for EFFICACY W (Abbot): control W=0, no growth W=100
Method: as §2, §3, §4

[5] = system: Phytophthora megasperma; assay: Kirby-Bauer disk diffusion test, Phytophthora megasperma
Method: as §1, §2, §3, §4

[6] = system: Phytium ultimum; assay: Kirby-Bauer disk diffusion test, Phytium ultimum
Method: as §2, §3, §4

[7] = system: Phytophthora cactorum; assay: Kirby-Bauer disk diffusion test, Phytophthora cactorum; design: % mycelium growth relative to the control: concentration or dose not given beside the values; conditions: for % mycelium growth relative to the control / mycelium growth: V8 medium; for mycelium growth: control 5.4 cm; for EFFICACY W (Abbot): control W=0, no growth W=100
Method: as §2, §3, §4

[8] = system: Fusarium oxysporum; assay: Kirby-Bauer disk diffusion test, Fusarium oxysporum; conditions: thiabendazole 500 g/L
Method: as §1, §2, §3, §4

[9] = system: Fusarium equiseti; assay: Kirby-Bauer disk diffusion test, Fusarium equiseti
Method: as §2, §3, §4

[10] = system: Sclerotinia sclerotiorum; assay: Kirby-Bauer disk diffusion test, Sclerotinia sclerotiorum
Method: as §2, §3, §4

[11] = system: Rhizoctonia solani; assay: Kirby-Bauer disk diffusion test, Rhizoctonia solani
Method: as §2, §3, §4

[12] = system: Alternaria infectoria/alternata; assay: Kirby-Bauer disk diffusion test, Alternaria infectoria/alternata
Method: as §2, §3, §4

[13] = Colletotrichum gloeosporioides, V8 medium
[14] = Colletotrichum gloeosporioides, V8 medium, control 5.4 cm

O=C1C2CC=CCC2C(=O)N1SC(Cl)(Cl)Cl (stereo not drawn) [Captan (1500)]
% mycelium growth relative to the control [1, 13]: 11%
mycelium growth [1, 14]: 0.6 cm
EFFICACY W (Abbot) ([1]; Colletotrichum gloeosporioides): 89
% mycelium growth relative to the control ([2]; Venturia inaegualis, V8 medium): 38%
mycelium growth ([2]; Venturia inaegualis, V8 medium, control 2.9 cm): 1.1 cm
EFFICACY W (Abbot) ([2]; Venturia inaegualis, control W=0, no growth W=100): 62
% mycelium growth relative to the control [3]: 33%
mycelium growth [3]: 1.8 cm
EFFICACY W (Abbot) [3]: 67
% mycelium growth relative to the control [4]: 70%
mycelium growth [4]: 6 cm
EFFICACY W (Abbot) [4]: 30

Cc1ccc(-c2c(Cl)nc(C#N)n2S(=O)(=O)N(C)C)cc1 [Cyazofamid (80)]
% mycelium growth relative to the control ([5]; Phytophthora megasperma, V8 medium): 100%
mycelium growth ([5]; Phytophthora megasperma, V8 medium, control 5.4 cm (8.6 cm in Table 25)): 5.4 cm
EFFICACY W (Abbot) ([5]; Phytophthora megasperma, control W=0, no growth W=100): 0
% mycelium growth relative to the control ([6]; V8 medium): 66%
mycelium growth ([6]; V8 medium, control 8.6 cm): 5.7 cm
EFFICACY W (Abbot) ([6]; control W=0, no growth W=100): 76
% mycelium growth relative to the control [7]: 63%
mycelium growth [7]: 3.4 cm
EFFICACY W (Abbot) [7]: 37

CCCCCCCCCCCCNC(=N)N [Dodine, dodine, reference compound]
activity at 680000 µg/mL ([2]; Venturia, dodine 680 g/L, read-out: % mycelium growth relative to the control): 55%
inhibition of growth at 680000 µg/mL (stock) ([2]; Venturia, dodine 680 g/L, read-out: EFFICACY W (Abbot)): 45%
mycelium growth ([2]; dodine 680 g/L): 1.6 cm

c1ccc2[nH]c(-c3cscn3)nc2c1 [Thiabendazole, thiabendazole, reference compound]
activity at 500000 µg/mL ([1]; Colletotrichum gloeosporioides, thiabendazole 500 g/L, read-out: % mycelium growth relative to the control): 0%
inhibition of growth at 500000 µg/mL ([1]; Colletotrichum gloeosporioides, thiabendazole 500 g/L, read-out: EFFICACY W (Abbot)): 100%
mycelium growth ([1]; thiabendazole 500 g/L): 0 cm
activity at 500000 µg/mL ([5]; Phytophthora megasperma, thiabendazole 500 g/L, read-out: % mycelium growth relative to the control): 48%
inhibition of growth at 500000 µg/mL ([5]; Phytophthora megasperma, thiabendazole 500 g/L, read-out: EFFICACY W (Abbot)): 52%
mycelium growth ([5]; thiabendazole 500 g/L): 2.6 cm
activity at 500000 µg/mL ([8]; Fusarium oxysporum, read-out: % mycelium growth relative to the control): 84%
inhibition of growth at 500000 µg/mL ([8]; Fusarium oxysporum, read-out: EFFICACY W (Abbot)): 16%
mycelium growth [8]: 7.2 cm

O=[N+]([O-])c1cc(C(F)(F)F)c(Cl)c([N+](=O)[O-])c1Nc1ncc(C(F)(F)F)cc1Cl [fluazinam (200)]
% mycelium growth relative to the control [1, 13]: 0%
mycelium growth [1, 14]: 0 cm
EFFICACY W (Abbot) ([1]; Colletotrichum gloeosporioides): 100
% mycelium growth relative to the control ([9]; V8 medium): 80%
mycelium growth ([9]; V8 medium, control 8.6 cm): 6.9 cm
EFFICACY W (Abbot) ([9]; control W=0, no growth W=100): 20
% mycelium growth relative to the control [3]: 0%
mycelium growth [3]: 0 cm
EFFICACY W (Abbot) [3]: 100
% mycelium growth relative to the control ([10]; V8 medium): 100%
mycelium growth ([10]; V8 medium, control 8.6 cm): 8.6 cm
EFFICACY W (Abbot) ([10]; control W=0, no growth W=100): 0
% mycelium growth relative to the control [4]: 100%
mycelium growth [4]: 8.6 cm
EFFICACY W (Abbot) [4]: 0
% mycelium growth relative to the control ([11]; V8 medium): 100%
mycelium growth ([11]; V8 medium, control 8.6 cm): 8.6 cm
EFFICACY W (Abbot) ([11]; control W=0, no growth W=100): 0
% mycelium growth relative to the control [7]: 33%
mycelium growth [7]: 1.8 cm
EFFICACY W (Abbot) [7]: 67
% mycelium growth relative to the control ([12]; V8 medium): 40%
mycelium growth ([12]; V8 medium, control 8.6 cm): 3.4 cm
EFFICACY W (Abbot) ([12]; control W=0, no growth W=100): 60
